Reference: ChEMBL document CHEMBL1649294, “Susceptibilities of 23 Desulfovibrio isolates from humans” (2009)
Values after ≈ are worked out from the molar mass of the structure shown.

Key:
Type in all cases: functional
Desulfovibrio piger [1] = experiment: Antimicrobial activity against Desulfovibrio piger by Etest method
[2] = test system: Desulfovibrio desulfuricans; experiment: Antimicrobial activity against Desulfovibrio desulfuricans MB by Etest method
[3] = test system: Desulfovibrio desulfuricans; experiment: Antimicrobial activity against Desulfovibrio desulfuricans Essex 6 by Etest method
Desulfovibrio sp. [4] = experiment: Antimicrobial activity against Desulfovibrio sp. by Etest method
[5] = test system: Desulfovibrio fairfieldensis; experiment: Antimicrobial activity against Desulfovibrio fairfieldensis by Etest method
Desulfovibrio piger [6] = experiment: Antimicrobial activity against Desulfovibrio piger in presence of Tazobactam by Etest method
Desulfovibrio sp. [7] = experiment: Antimicrobial activity against Desulfovibrio sp. in presence of Tazobactam by Etest method
[8] = test system: Desulfovibrio fairfieldensis; experiment: Antimicrobial activity against Desulfovibrio fairfieldensis in presence of Tazobactam by Etest method
[9] = test system: Desulfovibrio desulfuricans; experiment: Antimicrobial activity against Desulfovibrio desulfuricans MB in presence of Tazobactam by Etest method
[10] = test system: Desulfovibrio desulfuricans; experiment: Antimicrobial activity against Desulfovibrio desulfuricans Essex 6 in presence of Tazobactam by Etest method
[11] = test system: Desulfovibrio fairfieldensis; experiment: Antimicrobial activity against Desulfovibrio fairfieldensis in presence of Sulbactam by Etest method
[12] = test system: Desulfovibrio desulfuricans; experiment: Antimicrobial activity against Desulfovibrio desulfuricans MB in presence of Sulbactam by Etest method
[13] = test system: Desulfovibrio desulfuricans; experiment: Antimicrobial activity against Desulfovibrio desulfuricans Essex 6 in presence of Sulbactam by Etest method
Desulfovibrio sp. [14] = experiment: Antimicrobial activity against Desulfovibrio sp. in presence of Sulbactam by Etest method
Desulfovibrio piger [15] = experiment: Antimicrobial activity against Desulfovibrio piger in presence of Sulbactam by Etest method

| SMILES | MIC (Desulfovibrio piger [1]) [µg/mL] | MIC [2] [µg/mL] | MIC [3] [µg/mL] | MIC50 (Desulfovibrio sp. [4]) [µg/mL] | MIC90 (Desulfovibrio sp. [4]) [µg/mL] | MIC [5] [µg/mL] | MIC (Desulfovibrio sp. [4]) [µg/mL] | MIC (Desulfovibrio piger [6]) [µg/mL] | MIC50 (Desulfovibrio sp. [7]) [µg/mL] | MIC90 (Desulfovibrio sp. [7]) [µg/mL] | MIC [8] [µg/mL] | MIC [9] [µg/mL] | MIC [10] [µg/mL] | MIC [11] [µg/mL] | MIC [12] [µg/mL] | MIC [13] [µg/mL] | MIC50 (Desulfovibrio sp. [14]) [µg/mL] | MIC90 (Desulfovibrio sp. [14]) [µg/mL] | MIC (Desulfovibrio piger [15]) [µg/mL] | MIC (Desulfovibrio sp. [14]) [µg/mL] |
| --- | --- | --- | --- | --- | --- | --- | --- | --- | --- | --- | --- | --- | --- | --- | --- | --- | --- | --- | --- | --- |
| Cc1ncc([N+](=O)[O-])n1CCO [METRONIDAZOLE] | 0.032 (≈ 0.187 µM) | 0.016 (≈ 0.0935 µM) | 0.064 (≈ 0.374 µM) | 0.125 (≈ 0.73 µM) | 0.25 (≈ 1.46 µM) | 0.016 (≈ 0.0935 µM) | – | – | – | – | – | – | – | – | – | – | – | – | – | – |
| CC(=O)OCC1=C(C(=O)O)N2C(=O)[C@@H](NC(=O)Cc3cccs3)[C@H]2SC1 [CEPHALOTHIN] | > 96 | 2 (≈ 5.04 µM) | > 3 | > 256 | > 256 | > 256 | – | – | – | – | – | – | – | – | – | – | – | – | – | – |
| CO[C@@]1(NC(=O)Cc2cccs2)C(=O)N2C(C(=O)O)=C(COC(N)=O)CS[C@@H]21 [CEFOXITIN] | 16 (≈ 37.4 µM) | > 16 | > 256 | > 256 | > 256 | > 64 | – | – | – | – | – | – | – | – | – | – | – | – | – | – |
| C[C@H]1COc2c(N3CCN(C)CC3)c(F)cc3c(=O)c(C(=O)O)cn1c23.C[C@H]1COc2c(N3CCN(C)CC3)c(F)cc3c(=O)c(C(=O)O)cn1c23.O [LEVOFLOXACIN] | 0.095 | 0.25 | 0.25 | 0.75 | > 32 | > 32 | – | – | – | – | – | – | – | – | – | – | – | – | – | – |
| O=C(N[C@H](CO)[C@H](O)c1ccc([N+](=O)[O-])cc1)C(Cl)Cl [CHLORAMPHENICOL] | 1.5 (≈ 4.64 µM) | 1.5 (≈ 4.64 µM) | 1.5 (≈ 4.64 µM) | 4 (≈ 12.4 µM) | 8 (≈ 24.8 µM) | 3 (≈ 9.28 µM) | 1.5 (≈ 4.64 µM) | – | – | – | – | – | – | – | – | – | – | – | – | – |
| CC[C@H]1OC(=O)[C@H](C)[C@@H](O[C@H]2C[C@@](C)(OC)[C@@H](O)[C@H](C)O2)[C@H](C)[C@@H](O[C@@H]2O[C@H](C)C[C@H](N(C)C)[C@H]2O)[C@](C)(O)C[C@@H](C)C(=O)[C@H](C)[C@@H](O)[C@]1(C)O [ERYTHROMYCIN] | 0.016 (≈ 0.0218 µM) | 0.38 (≈ 0.518 µM) | 0.38 (≈ 0.518 µM) | 0.5 (≈ 0.681 µM) | 1.5 (≈ 2.04 µM) | 0.5 (≈ 0.681 µM) | – | – | – | – | – | – | – | – | – | – | – | – | – | – |
| CCC[C@@H]1C[C@@H](C(=O)N[C@@H]([C@H]2O[C@H](SC)[C@H](O)[C@@H](O)[C@H]2O)[C@H](C)Cl)N(C)C1 [CLINDAMYCIN] | 0.016 (≈ 0.0376 µM) | 0.094 (≈ 0.221 µM) | 0.094 (≈ 0.221 µM) | 0.125 (≈ 0.294 µM) | 0.19 (≈ 0.447 µM) | 0.032 (≈ 0.0753 µM) | – | – | – | – | – | – | – | – | – | – | – | – | – | – |
| O=C(O)c1cn(C2CC2)c2cc(N3CCNCC3)c(F)cc2c1=O [CIPROFLOXACIN] | 0.125 (≈ 0.377 µM) | 0.125 (≈ 0.377 µM) | 0.19 (≈ 0.573 µM) | 0.5 (≈ 1.51 µM) | > 32 | > 32 | – | – | – | – | – | – | – | – | – | – | – | – | – | – |
| CCN1CCN(C(=O)N[C@@H](C(=O)N[C@@H]2C(=O)N3[C@@H]2SC(C)(C)[C@@H]3C(=O)O)c2ccccc2)C(=O)C1=O [PIPERACILLIN] | > 256 | > 32 | > 256 | > 256 | > 256 | > 256 | – | > 256 | > 256 | > 256 | > 256 | 32 | > 16 | – | – | – | – | – | – | – |
| CCN1CCN(C(=O)N[C@@H](C(=O)N[C@@H]2C(=O)N3C(C(=O)O)=C(CSc4nnnn4C)CS[C@H]23)c2ccc(O)cc2)C(=O)C1=O [CEFOPERAZONE] | 12 (≈ 18.6 µM) | 12 (≈ 18.6 µM) | > 16 | > 256 | > 256 | > 256 | – | – | – | – | – | – | – | > 24 | 1 | > 3 | 4 | > 256 | 1 | – |
| CN(C)c1ccc(O)c2c1C[C@H]1C[C@H]3[C@H](N(C)C)C(O)=C(C(N)=O)C(=O)[C@@]3(O)C(O)=C1C2=O [MINOCYCLINE] | 0.19 (≈ 0.415 µM) | 3 (≈ 6.56 µM) | 2 (≈ 4.37 µM) | 6 (≈ 13.1 µM) | 24 (≈ 52.5 µM) | 4 (≈ 8.74 µM) | – | – | – | – | – | – | – | – | – | – | – | – | – | – |
| CC(C)(O/N=C(\C(=O)N[C@@H]1C(=O)N2C(C(=O)[O-])=C(C[n+]3ccccc3)CS[C@H]12)c1csc(N)n1)C(=O)O [CEFTAZIDIME] | 3 (≈ 5.49 µM) | 2 (≈ 3.66 µM) | > 3 | 6 (≈ 11 µM) | > 256 | > 256 | – | – | – | – | – | – | – | – | – | – | – | – | – | – |
| C[C@@H](O)[C@H]1C(=O)N2C(C(=O)O)=C(S[C@@H]3CN[C@H](C(=O)N(C)C)C3)[C@H](C)[C@H]12 [MEROPENEM] | 0.032 (≈ 0.0834 µM) | 0.023 (≈ 0.06 µM) | 0.064 (≈ 0.167 µM) | 0.19 (≈ 0.495 µM) | 4 (≈ 10.4 µM) | 2 (≈ 5.22 µM) | – | – | – | – | – | – | – | – | – | – | – | – | – | – |
| CO/N=C(\C(=O)N[C@@H]1C(=O)N2C(C(=O)O)=C(COC(C)=O)CS[C@H]12)c1csc(N)n1 [CEFOTAXIME] | 1 (≈ 2.2 µM) | 0.5 (≈ 1.1 µM) | 0.047 (≈ 0.103 µM) | 1.5 (≈ 3.29 µM) | > 256 | > 0.047 | – | – | – | – | – | – | – | – | – | – | – | – | – | – |
| CO/N=C(\C(=O)N[C@@H]1C(=O)N2C(C(=O)[O-])=C(C[n+]3cccc4c3CCC4)CS[C@H]12)c1csc(N)n1 [CEFPIROME] | 0.75 (≈ 1.46 µM) | 0.5 (≈ 0.972 µM) | 0.5 (≈ 0.972 µM) | 4 (≈ 7.77 µM) | > 256 | > 256 | – | – | – | – | – | – | – | – | – | – | – | – | – | – |
| CC1(C)S[C@@H]2[C@H](NC(=O)[C@H](N)c3ccccc3)C(=O)N2[C@H]1C(=O)O [AMPICILLIN] | 12 (≈ 34.3 µM) | 0.19 (≈ 0.544 µM) | 0.19 (≈ 0.544 µM) | 0.75 (≈ 2.15 µM) | 8 (≈ 22.9 µM) | 4 (≈ 11.4 µM) | – | – | – | – | – | – | – | 4 | 0.064 | 0.125 | 0.38 | 6 | 0.5 | 0.06 |
